This is an account of results in the NIST ThermoML archive (doi:10.1021/je200098d).

The conditions of this series: Liquid, Ebulliometric method (Recirculating still).

± gives the expanded uncertainty stated by the source.

By vapor or sublimation pressure is commonly meant the equilibrium pressure above the liquid or solid. With `CCc1ccccc1` [ethylbenzene], the “vapor or sublimation pressure” value is, setting by setting: (324.4 K) 5 ± 0.1 kPa; (333.4 K) 7.5 ± 0.1 kPa; (340 K) 10 ± 0.1 kPa; (345.5 K) 12.5 ± 0.1 kPa; (350.1 K) 15 ± 0.1 kPa; (354.1 K) 17.5 ± 0.1 kPa. In addition, the “vapor or sublimation pressure” value (357.7 K) is reported as 20 ± 0.2 kPa, the “vapor or sublimation pressure” value (360.9 K) is given as 22.5 ± 0.2 kPa and the “vapor or sublimation pressure” value (363.8 K) turned out to be 25 ± 0.2 kPa.
Regarding `C=Cc1ccccc1` [styrene], the “vapor or sublimation pressure” value is given as 5 ± 0.1 kPa (332.4 K); 7.5 ± 0.1 kPa (341.4 K); 10 ± 0.1 kPa (348.3 K); 12.5 ± 0.1 kPa (353.9 K); 15 ± 0.1 kPa (358.5 K); 17.5 ± 0.1 kPa (362.6 K). The “vapor or sublimation pressure” value runs as follows: (366.2 K) 20 ± 0.2 kPa; (369.4 K) 22.5 ± 0.2 kPa; (372.4 K) 25 ± 0.2 kPa.
